Measured values published in the NIST ThermoML archive (doi:10.1016/j.jct.2016.09.013).

Settings: Liquid; for viscosity: Concentric cylinders viscometry

CCCCn1cc[n+](C)c1.COP(=O)([O-])OC [1-butyl-3-methyl-1H-imidazolium dimethylphosphate]
101.33 kPa
Settings | viscosity [mPa·s]
293.15 K | 760.4
303.15 K | 369.3
313.15 K | 198.8
323.15 K | 116.4
333.15 K | 72.97
343.15 K | 48.45
353.15 K | 33.76
363.15 K | 24.48
373.15 K | 18.37

Settings | mass density [kg/m3]
293.15 K, 101.33 kPa, Vibrating tube method | 1167.3
303.15 K, 101.33 kPa, Vibrating tube method | 1160.2
311.4 K, 10000 kPa, Bellows volumetry | 1159.3
311.4 K, 20000 kPa, Bellows volumetry | 1163.7
311.4 K, 30000 kPa, Bellows volumetry | 1168.1
311.4 K, 40000 kPa, Bellows volumetry | 1172.2
311.4 K, 50000 kPa, Bellows volumetry | 1176.4
311.4 K, 60000 kPa, Bellows volumetry | 1180.3
311.4 K, 70000 kPa, Bellows volumetry | 1183.9
311.4 K, 80000 kPa, Bellows volumetry | 1187.7
311.4 K, 90000 kPa, Bellows volumetry | 1191.3
311.4 K, 100000 kPa, Bellows volumetry | 1194.7
311.4 K, 110000 kPa, Bellows volumetry | 1198.1
311.4 K, 120000 kPa, Bellows volumetry | 1201.4
311.4 K, 130000 kPa, Bellows volumetry | 1204.7
311.4 K, 140000 kPa, Bellows volumetry | 1207.7
311.4 K, 150000 kPa, Bellows volumetry | 1210.8
311.4 K, 160000 kPa, Bellows volumetry | 1213.7
311.4 K, 170000 kPa, Bellows volumetry | 1216.7
311.4 K, 180000 kPa, Bellows volumetry | 1219.6
311.4 K, 190000 kPa, Bellows volumetry | 1222.5
311.4 K, 200000 kPa, Bellows volumetry | 1225.3
313.15 K, 101.33 kPa, Vibrating tube method | 1153.4
323.15 K, 101.33 kPa, Vibrating tube method | 1146.8
331.3 K, 10000 kPa, Bellows volumetry | 1146.1
331.3 K, 20000 kPa, Bellows volumetry | 1150.8
331.3 K, 30000 kPa, Bellows volumetry | 1155.4
331.3 K, 40000 kPa, Bellows volumetry | 1159.8
331.3 K, 50000 kPa, Bellows volumetry | 1164.2
331.3 K, 60000 kPa, Bellows volumetry | 1168.3
331.3 K, 70000 kPa, Bellows volumetry | 1172.1
331.3 K, 80000 kPa, Bellows volumetry | 1176
331.3 K, 90000 kPa, Bellows volumetry | 1179.6
331.3 K, 100000 kPa, Bellows volumetry | 1183.1
331.3 K, 110000 kPa, Bellows volumetry | 1186.6
331.3 K, 120000 kPa, Bellows volumetry | 1190.1
331.3 K, 130000 kPa, Bellows volumetry | 1193.4
331.3 K, 140000 kPa, Bellows volumetry | 1196.6
331.3 K, 150000 kPa, Bellows volumetry | 1199.8
331.3 K, 160000 kPa, Bellows volumetry | 1202.9
331.3 K, 170000 kPa, Bellows volumetry | 1205.9
331.3 K, 180000 kPa, Bellows volumetry | 1208.9
331.3 K, 190000 kPa, Bellows volumetry | 1212.6
331.3 K, 200000 kPa, Bellows volumetry | 1214.8
333.15 K, 101.33 kPa, Vibrating tube method | 1140.3
343.15 K, 101.33 kPa, Vibrating tube method | 1133.7
351.6 K, 10000 kPa, Bellows volumetry | 1133.7
351.6 K, 20000 kPa, Bellows volumetry | 1138.4
351.6 K, 30000 kPa, Bellows volumetry | 1143.3
351.6 K, 40000 kPa, Bellows volumetry | 1147.9
351.6 K, 50000 kPa, Bellows volumetry | 1152.4
351.6 K, 60000 kPa, Bellows volumetry | 1156.7
351.6 K, 70000 kPa, Bellows volumetry | 1160.9
351.6 K, 80000 kPa, Bellows volumetry | 1164.9
351.6 K, 90000 kPa, Bellows volumetry | 1168.6
351.6 K, 100000 kPa, Bellows volumetry | 1172.3
351.6 K, 110000 kPa, Bellows volumetry | 1175.9
351.6 K, 120000 kPa, Bellows volumetry | 1179.7
351.6 K, 130000 kPa, Bellows volumetry | 1183.1
351.6 K, 140000 kPa, Bellows volumetry | 1186.4
351.6 K, 150000 kPa, Bellows volumetry | 1189.6
351.6 K, 160000 kPa, Bellows volumetry | 1192.8
351.6 K, 170000 kPa, Bellows volumetry | 1196.1
351.6 K, 180000 kPa, Bellows volumetry | 1199.1
351.6 K, 190000 kPa, Bellows volumetry | 1202.1
351.6 K, 200000 kPa, Bellows volumetry | 1205.1
353.15 K, 101.33 kPa, Vibrating tube method | 1127.2
363.15 K, 101.33 kPa, Vibrating tube method | 1120.7
371.6 K, 10000 kPa, Bellows volumetry | 1120.8
371.6 K, 20000 kPa, Bellows volumetry | 1126.1
371.6 K, 30000 kPa, Bellows volumetry | 1131.3
371.6 K, 40000 kPa, Bellows volumetry | 1136.2
371.6 K, 50000 kPa, Bellows volumetry | 1140.9
371.6 K, 60000 kPa, Bellows volumetry | 1145.4
371.6 K, 70000 kPa, Bellows volumetry | 1149.7
371.6 K, 80000 kPa, Bellows volumetry | 1153.9
371.6 K, 90000 kPa, Bellows volumetry | 1157.9
371.6 K, 100000 kPa, Bellows volumetry | 1161.8
371.6 K, 110000 kPa, Bellows volumetry | 1165.7
371.6 K, 120000 kPa, Bellows volumetry | 1169.4
371.6 K, 130000 kPa, Bellows volumetry | 1173.1
371.6 K, 140000 kPa, Bellows volumetry | 1176.4
371.6 K, 150000 kPa, Bellows volumetry | 1179.7
371.6 K, 160000 kPa, Bellows volumetry | 1183
371.6 K, 170000 kPa, Bellows volumetry | 1186.3
371.6 K, 180000 kPa, Bellows volumetry | 1189.4
371.6 K, 190000 kPa, Bellows volumetry | 1192.5
371.6 K, 200000 kPa, Bellows volumetry | 1195.6
373.15 K, 101.33 kPa, Vibrating tube method | 1114.2

CCn1cc[n+](C)c1.COP(=O)([O-])OC [1-ethyl-3-methylimidazolium dimethylphosphate]
101.33 kPa
Settings | viscosity [mPa·s]
303.15 K | 186
313.15 K | 107.5
323.15 K | 67.1
333.15 K | 44.64
343.15 K | 31.27
353.15 K | 22.85
363.15 K | 17.29
373.15 K | 13.47

Settings | mass density [kg/m3]
303.15 K, 101.33 kPa, Vibrating tube method | 1214.4
312 K, 10000 kPa, Bellows volumetry | 1212.6
312 K, 20000 kPa, Bellows volumetry | 1216.9
312 K, 30000 kPa, Bellows volumetry | 1221
312 K, 40000 kPa, Bellows volumetry | 1224.9
312 K, 50000 kPa, Bellows volumetry | 1228.8
312 K, 60000 kPa, Bellows volumetry | 1232.5
313.15 K, 101.33 kPa, Vibrating tube method | 1207.6
323.15 K, 101.33 kPa, Vibrating tube method | 1200.9
331.7 K, 10000 kPa, Bellows volumetry | 1199.7
331.7 K, 20000 kPa, Bellows volumetry | 1204.1
331.7 K, 30000 kPa, Bellows volumetry | 1208.5
331.7 K, 40000 kPa, Bellows volumetry | 1212.6
331.7 K, 50000 kPa, Bellows volumetry | 1216.6
331.7 K, 60000 kPa, Bellows volumetry | 1220.4
331.7 K, 70000 kPa, Bellows volumetry | 1224.1
331.7 K, 80000 kPa, Bellows volumetry | 1227.8
331.7 K, 90000 kPa, Bellows volumetry | 1231.3
331.7 K, 100000 kPa, Bellows volumetry | 1234.7
331.7 K, 110000 kPa, Bellows volumetry | 1238.1
331.7 K, 120000 kPa, Bellows volumetry | 1241.3
331.7 K, 130000 kPa, Bellows volumetry | 1244.5
331.7 K, 140000 kPa, Bellows volumetry | 1247.6
331.7 K, 150000 kPa, Bellows volumetry | 1250.8
331.7 K, 160000 kPa, Bellows volumetry | 1253.7
331.7 K, 170000 kPa, Bellows volumetry | 1256.7
331.7 K, 180000 kPa, Bellows volumetry | 1259.5
331.7 K, 190000 kPa, Bellows volumetry | 1262.3
331.7 K, 200000 kPa, Bellows volumetry | 1265.2
333.15 K, 101.33 kPa, Vibrating tube method | 1194.3
343.15 K, 101.33 kPa, Vibrating tube method | 1187.6
351.7 K, 10000 kPa, Bellows volumetry | 1186.8
351.7 K, 20000 kPa, Bellows volumetry | 1191.5
351.7 K, 30000 kPa, Bellows volumetry | 1196
351.7 K, 40000 kPa, Bellows volumetry | 1200.3
351.7 K, 50000 kPa, Bellows volumetry | 1204.5
351.7 K, 60000 kPa, Bellows volumetry | 1208.5
351.7 K, 70000 kPa, Bellows volumetry | 1212.4
351.7 K, 80000 kPa, Bellows volumetry | 1216.2
351.7 K, 90000 kPa, Bellows volumetry | 1219.8
351.7 K, 100000 kPa, Bellows volumetry | 1223.3
351.7 K, 110000 kPa, Bellows volumetry | 1226.9
351.7 K, 120000 kPa, Bellows volumetry | 1230.4
351.7 K, 130000 kPa, Bellows volumetry | 1233.6
351.7 K, 140000 kPa, Bellows volumetry | 1236.9
351.7 K, 150000 kPa, Bellows volumetry | 1240
351.7 K, 160000 kPa, Bellows volumetry | 1243.2
351.7 K, 170000 kPa, Bellows volumetry | 1246.2
351.7 K, 180000 kPa, Bellows volumetry | 1249.1
351.7 K, 190000 kPa, Bellows volumetry | 1252
351.7 K, 200000 kPa, Bellows volumetry | 1255
353.15 K, 101.33 kPa, Vibrating tube method | 1181.1
363.15 K, 101.33 kPa, Vibrating tube method | 1174.5
372.4 K, 10000 kPa, Bellows volumetry | 1174.1
372.4 K, 20000 kPa, Bellows volumetry | 1179
372.4 K, 30000 kPa, Bellows volumetry | 1182.8
372.4 K, 40000 kPa, Bellows volumetry | 1188.3
372.4 K, 50000 kPa, Bellows volumetry | 1192.6
372.4 K, 60000 kPa, Bellows volumetry | 1196.9
372.4 K, 70000 kPa, Bellows volumetry | 1200.9
372.4 K, 80000 kPa, Bellows volumetry | 1204.9
372.4 K, 90000 kPa, Bellows volumetry | 1208.7
372.4 K, 100000 kPa, Bellows volumetry | 1212.4
372.4 K, 110000 kPa, Bellows volumetry | 1216
372.4 K, 120000 kPa, Bellows volumetry | 1219.5
372.4 K, 130000 kPa, Bellows volumetry | 1223
372.4 K, 140000 kPa, Bellows volumetry | 1226.3
372.4 K, 150000 kPa, Bellows volumetry | 1229.6
372.4 K, 160000 kPa, Bellows volumetry | 1232.8
372.4 K, 170000 kPa, Bellows volumetry | 1235.9
372.4 K, 180000 kPa, Bellows volumetry | 1238.9
372.4 K, 190000 kPa, Bellows volumetry | 1242
372.4 K, 200000 kPa, Bellows volumetry | 1244.9
373.15 K, 101.33 kPa, Vibrating tube method | 1168.1
391.9 K, 10000 kPa, Bellows volumetry | 1161.7
391.9 K, 20000 kPa, Bellows volumetry | 1166.8
391.9 K, 30000 kPa, Bellows volumetry | 1171.8
391.9 K, 40000 kPa, Bellows volumetry | 1176.6
391.9 K, 50000 kPa, Bellows volumetry | 1181.2
391.9 K, 60000 kPa, Bellows volumetry | 1185.6
391.9 K, 70000 kPa, Bellows volumetry | 1189.9
391.9 K, 80000 kPa, Bellows volumetry | 1194
391.9 K, 90000 kPa, Bellows volumetry | 1198
391.9 K, 100000 kPa, Bellows volumetry | 1201.8
391.9 K, 110000 kPa, Bellows volumetry | 1205.6
391.9 K, 120000 kPa, Bellows volumetry | 1209.1
391.9 K, 130000 kPa, Bellows volumetry | 1212.7
391.9 K, 140000 kPa, Bellows volumetry | 1216.1
391.9 K, 150000 kPa, Bellows volumetry | 1219.5
391.9 K, 160000 kPa, Bellows volumetry | 1222.8
391.9 K, 170000 kPa, Bellows volumetry | 1226
391.9 K, 180000 kPa, Bellows volumetry | 1229.1
391.9 K, 190000 kPa, Bellows volumetry | 1232.2
391.9 K, 200000 kPa, Bellows volumetry | 1235.3
